In PubChem BioAssay (NCI):
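Exposure lasted 48 hours, with cells grown in 96-well plates and compounds tested at five concentrations. GI50 = concentration required for 50% inhibition of growth. TGI denotes the concentration required for complete inhibition of growth.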

How the values were obtained:
Assay in all cases: NCI-60 cell line screen, 48 h
[1] = tested on: DLD-1 colon
[2] = tested on: DMS 273 small cell lung
[3] = tested on: KM20L2 colon
[4] = tested on: LXFL 529 NSCLC
[5] = tested on: M19-MEL melanoma
[6] = tested on: SNB-78 CNS
[7] = tested on: XF 498 CNS
[8] = tested on: MDA-N
[9] = tested on: RXF-631 renal

SMILES	TGI [1]	TGI [2]	TGI [3]	TGI [4]	TGI [5]	TGI [6]	TGI [7]	TGI [8]	TGI [9]	also measured
Nc1cc(=O)n(-c2ccccc2)c(=S)n1-c1ccccc1	> 100 µM	> 100 µM	> 100 µM	> 100 µM	> 100 µM	> 100 µM	> 100 µM			
O=C(O)c1ccc(C(=O)O)c(C(=O)Nc2ccc3c(c2)C(=O)c2ccccc2-3)c1								> 100 µM		
c1ccc2c(c1)N=C(c1cccc3ccccc13)CC(c1ccc3c(c1)OCO3)S2 (stereo unspecified)	> 100 µM	> 100 µM	> 100 µM	> 100 µM	> 100 µM	> 100 µM	> 100 µM		> 100 µM	
Cc1cc(C)nc(NS(=O)(=O)c2ccc(Nc3c4ccc(Cl)cc4nc4c(C(=O)NCCN(C)C)cccc34)cc2)n1	> 100 µM	> 100 µM	> 100 µM	> 100 µM	> 100 µM	> 100 µM	> 100 µM		> 100 µM	
COC(=O)C(Cc1nc2ccccc2nc1C)/C(=N\NC(N)=O)C(=O)Nc1cccc([N+](=O)[O-])c1 (stereo unspecified)	> 100 µM		> 100 µM	> 100 µM	> 100 µM	> 100 µM	> 100 µM		> 100 µM	
CCNC(=O)O/N=C1\CCC2[C@@H]3CC=C4C[C@@H](OC5CCCCO5)CC[C@]4(C)C3CC[C@]12C (stereo partly specified)	> 100 µM		12.4 µM	2.43 µM	3.6 µM	6.42 µM			22.4 µM	
CC(C)(C)CC(N)=O								> 100 µM		
O=c1ssc(Cl)c1Cl								> 10 µM		
COc1ccccc1NC(=O)c1nc2ccc([N+](=O)[O-])cc2nc1C	> 100 µM	> 100 µM	> 100 µM	> 100 µM	> 100 µM		73.8 µM			
Cc1ccccc1-n1c2nc(=O)n(C)c(=O)c-2nc2ccccc21	42.4 µM	26.7 µM	21.9 µM	26.3 µM	3.84 µM	43.1 µM	31.3 µM		36.3 µM	
O=C(/C(=C\c1ccc(Cl)cc1)c1ccccc1)c1ccccc1	> 100 µM			> 100 µM		> 100 µM	95.5 µM			
COc1cc2c(cc1OC)C1Cc3cc(OC)c(OC)cc3C(C2)N1C	> 100 µM		> 100 µM	> 100 µM		> 100 µM	> 100 µM	> 75 µM		
CN1CCN(C)C12C=CC=CC21CC1	> 100 µM	> 100 µM	> 100 µM		> 100 µM	> 100 µM	> 100 µM		> 100 µM	
O=C(COC(=O)c1cccc2c(=O)c3ccccc3[nH]c12)Nc1ccc(C(=O)O)cc1	> 100 µM		> 100 µM		> 100 µM	> 100 µM	95.6 µM		> 100 µM	
Ic1cc2c(cc1C1SCCCS1)OCO2	> 100 µM	> 100 µM	> 100 µM	> 100 µM	> 100 µM	> 100 µM			> 100 µM	
NCCNCc1c2ccccc2c(CNCCN)c2ccccc12	> 100 µM		74.1 µM	22.1 µM	84.4 µM	82.1 µM			> 100 µM	
CC(=O)NC1C(OCc2ccccc2)OC(COC(=O)CCCCCCCCCCNc2ccc([N+](=O)[O-])c3[nH]c4ccccc4c(=O)c23)C(O)C1OC(C)C(=O)NC(C)C(=O)NC(CCC(N)=O)C(=O)OCc1ccccc1 (stereo unspecified)	> 100 µM	> 100 µM	> 100 µM	> 100 µM	> 100 µM	> 100 µM	> 100 µM			
Cc1cc(C(C)(C)C)cc(CNC2CCCCC2)c1O								29.9 µM		
NCC1OC(OC2C(CO)OC(OC3C(O)C(N)CC(N)C3OC3OC(CO)C(O)CC3N)C2O)C(N)C(O)C1OC1OC(CO)C(O)C(O)C1O (stereo unspecified)								> 50 µg/mL		GI50 [8]: > 50 µg/mL
CC1=CC(N2C(=O)C(C)=CC2O)NC1=O (stereo unspecified)	> 100 µM		> 100 µM	> 100 µM	> 100 µM	> 100 µM				
CC1OC(OC2C(OC3CCC4(C)C(CCC5(C)C4CC=C4C6CC(C)(C)CCC6(C(=O)O)CCC45C)C3(C)CO)OCC(O)C2O)C(O)C(O)C1O (stereo unspecified)								39.9 µM		
COc1ccc2nc3cc(Cl)ccc3c(Sc3ccc([N+](=O)[O-])cc3)c2c1	> 100 µM	> 100 µM	> 100 µM	> 100 µM	> 100 µM	> 10 µM	> 100 µM		> 100 µM	GI50 [1]: > 100 µM; GI50 [2]: > 100 µM; GI50 [3]: > 100 µM; GI50 [4]: > 100 µM; GI50 [5]: > 100 µM; GI50 [9]: > 100 µM; GI50 [7]: > 100 µM
CS(=O)(=O)CC(=O)c1ccccc1								> 100 µM		
